Active and inactive are the calls of the source.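 The calls were made as follows: active = fitted curve reaches 40% activation at a concentration no higher than the top valid tested dose; inconclusive = flat fit between 30% and 70% activation, or poor fit; inactive = uptake decrease, flat fit within 30% of zero, the rest.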

The target in the first experiment is Scavenger receptor class B member 1 (Mus musculus) (UniProt Q61009). In words: enhancers of DiI-HDL lipid transfer via SR-BI – cell-based, ldlA[mSR-BI] CHO, DiI fluorescence, cherry-pick, dose response (AID 602191).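 Also: cell fluorescence from internalized DiI-labeled HDL after washing.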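 As to AC40: potency of activators raising HDL uptake.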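 As to activation (HDL uptake increase): 0% = median of DMSO wells and 100% = twice the DMSO signal.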 To be noted: ldlA[mSR-BI] CHO cells, 3 h, at 35 µM (top of the series).
Scavenger receptor class B member 1 (Mus musculus), sequence (Q61009 whole entry, looked up): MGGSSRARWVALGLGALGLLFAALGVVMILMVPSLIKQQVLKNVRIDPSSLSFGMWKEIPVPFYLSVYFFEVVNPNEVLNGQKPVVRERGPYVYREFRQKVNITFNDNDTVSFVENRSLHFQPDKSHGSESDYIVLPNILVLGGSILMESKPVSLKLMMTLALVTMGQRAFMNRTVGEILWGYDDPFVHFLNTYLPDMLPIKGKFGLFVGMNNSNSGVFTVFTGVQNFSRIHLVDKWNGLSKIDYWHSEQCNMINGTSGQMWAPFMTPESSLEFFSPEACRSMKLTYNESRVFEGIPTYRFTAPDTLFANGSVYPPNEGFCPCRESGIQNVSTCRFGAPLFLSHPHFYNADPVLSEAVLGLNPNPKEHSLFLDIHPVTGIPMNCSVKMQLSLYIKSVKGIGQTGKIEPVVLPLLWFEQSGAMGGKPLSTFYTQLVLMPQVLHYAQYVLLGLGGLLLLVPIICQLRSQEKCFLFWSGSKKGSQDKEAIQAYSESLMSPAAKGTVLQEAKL
On to `O=C1[C@H]2[C@@H](c3ccc(F)cc3)N3C(=O)N(c4ccc(Br)cc4)C(=O)[C@@]3(Cc3ccccc3)[C@H]2C(=O)N1C1CCCCC1`, for which the activation (HDL uptake increase) is 6.23% (inactive).
As for `Cc1ccc(N(C)C(=O)CN(C)S(=O)(=O)c2ccc3c(c2)n(C)c(=O)c(=O)n3C)cc1`, the activation (HDL uptake increase) is 8.76% (inactive).
As for `O=C(CCC(=O)OCC(=O)c1ccc([N+](=O)[O-])cc1)Nc1ccccc1Cl`, the activation (HDL uptake increase) is -5.05% (inactive).
On the same count and under the same terms, for `COCCCNC(=O)CC(NS(=O)(=O)c1ccc(OC)cc1)c1ccc(OC)cc1` (stereo not given) the value was -4.2% (inactive).
Take `Cc1cc(C)c2[nH]c(=O)c(CN(CC3CCCO3)C(=O)c3cnccn3)cc2c1` (stereo not given): the activation (HDL uptake increase) was -7.36% (inactive).
Same read-out and setting: as for `CC(C)(C)SCCNC(=O)c1ccc(Cl)c([N+](=O)[O-])c1`, the figure is -10.4% (inactive); as for `O=C(O)CCc1nnc(SCC(=O)Nc2cccc(C(F)(F)F)c2)[nH]c1=O`, -1.57% (inactive).
Take `COc1ccc(Oc2nc(Oc3ccc(OC)cc3)nc(Oc3ccc(OC)cc3)n2)cc1`: the activation (HDL uptake increase) was -9.22% (inactive).
For the compound `COc1ccc(CCNC(=S)N2CCN(S(=O)(=O)c3ccc(Cl)cc3)CC2)cc1`, the activation (HDL uptake increase) was 5.66% (inactive).
In the case of `CCN1CCN(C(c2cccc(OC)c2)c2sc3nc(C)nn3c2O)CC1` (stereo not given), the activation (HDL uptake increase) is -1.19% (inactive).
Same read-out and setting: for `C[C@@H]1CN([C@H](C)CO)C(=O)c2cc(NC(=O)Nc3ccc(C(F)(F)F)cc3)ccc2O[C@H]1CN(C)S(=O)(=O)c1ccc(Cl)cc1` the value was 5.12% (inactive); for `CC1CCc2c(C(=O)NCCN3CCOCC3)csc2C1` (stereo not given), -15.7% (inactive).
Same read-out and setting: as for `Cc1c(C(=O)N2CCC(C(N)=O)CC2)sc(N)c1C#N`, the figure is -8.06% (inactive).
In the case of `CCCCCC1CC(CC(=O)O)C(=O)O1` (stereo not given), the activation (HDL uptake increase) is -5.76% (inactive).
In the case of `CCOC(=O)C1CCCN(S(=O)(=O)c2ccc3ccccc3c2)C1` (stereo not given), the activation (HDL uptake increase) is -7.01% (inactive).
As to `C[C@@H](C(=O)OCC(=O)c1ccccc1)N1C(=O)C2CCCCC2C1=O` (stereo not given in full), the activation (HDL uptake increase) is -7.88% (inactive).
As to `O=C(Cc1ccsc1)N1CCN(S(=O)(=O)c2cccc(F)c2)CC1`, the activation (HDL uptake increase) is -4.56% (inactive).
Still for that read-out and setting: as for `CCOC(=O)C1CCCN(S(=O)(=O)c2ccc(S(=O)(=O)N3CCCC3)cc2)C1` (stereo not given), the figure is -3.5% (inactive); as for `CC(Oc1ccccc1)C(=O)Nc1cccc(F)c1` (stereo not given), 5.9% (inactive); as for `O=C(N1CCN(S(=O)(=O)c2ccc(Cl)cc2)CC1)n1ccnc1`, -2.88% (inactive).
Turning to `Cc1c(NC(=O)c2ccc(Br)o2)cccc1C(=O)O`, the activation (HDL uptake increase) is 5.98% (inactive).
In the case of `Cc1ccc(SCC(=O)NNC(=O)CCS(=O)(=O)c2ccc(C)cc2)cc1`, the activation (HDL uptake increase) is 0.551% (inactive).
On to `CC1CCC(NC(=O)CCNS(=O)(=O)c2ccccc2)CC1` (stereo not given), for which the activation (HDL uptake increase) was 10.2% (inactive).
Turning to `CC1CC(C)CN(C(=O)CN2CCN(Cc3ccc(Cl)cc3)C2=O)C1` (stereo not given), the activation (HDL uptake increase) was -4.58% (inactive).
Consider `O=C(CN1C(=O)NC2(CCCC2)C1=O)Nc1ccc(Cl)c(C(F)(F)F)c1`, for which the activation (HDL uptake increase) was -11.2% (inactive).
In the case of `CCN1CCN(C(=O)C2CCC(=O)N(Cc3cccc(C(F)(F)F)c3)C2)CC1` (stereo not given), the activation (HDL uptake increase) was -0.502% (inactive).
The same measure, in the same setting: for `CN(c1ccc(OCC(=O)OCC(=O)Nc2ccc([N+](=O)[O-])cc2)cc1)S(=O)(=O)c1cccs1` the value was -13.3% (inactive).
As to `CCN1CCN(C(CNS(=O)(=O)c2ccc(Br)cc2)c2cccnc2)CC1` (stereo not given), the activation (HDL uptake increase) is -1.44% (inactive).
In the case of `N#Cc1ccc(OCCOCCNC2CCCC2)cc1`, the activation (HDL uptake increase) is 13.4% (inactive).
Consider `O=C(NC1CCCCCC1)C1c2ccccc2C(=O)N1CCCN1CCOCC1` (stereo not given), for which the activation (HDL uptake increase) was -1.53% (inactive).
`CCOC(=O)N1CCC(NC(=S)Nc2ccc3nc(N4CCN(C)CC4)cc(C)c3c2)CC1`: the activation (HDL uptake increase) was -25.6% (inactive).
On the same count and under the same terms, as for `CC(=O)NC1(C2CCCCC2=O)CCCCC1` (stereo not given), the figure is -3.84% (inactive).
As for `COc1ccc(N2CC(NC(=O)N3CCN(C(=O)c4ccco4)CC3)CC2=O)cc1OC` (stereo not given), the activation (HDL uptake increase) is 11% (inactive).
For the compound `COC(=O)C(Cc1ccc(O)cc1)NC(=O)C1CCN(S(=O)(=O)c2ccc(C)cc2)CC1` (stereo not given), the activation (HDL uptake increase) was -2.45% (inactive).
Regarding `Cc1ccc(OCC(=O)N(C)CC(=O)NCc2ccco2)c(Br)c1`, the activation (HDL uptake increase) was -24.2% (inactive).
`CCCCN(C(=O)c1cc2c(s1)CCC2)c1c(N)n(CC(C)C)c(=O)[nH]c1=O`: the activation (HDL uptake increase) is -6.82% (inactive).
As to `CN1CCN(C(=O)C2=C[C@@H](c3coc4ccccc4c3=O)C[C@@H](OCCCCO)O2)CC1`, the activation (HDL uptake increase) is -7.43% (inactive).
With `COc1ccc(N(CC(=O)NCc2ccccc2)S(=O)(=O)c2c(C)nn(C)c2C)cc1`, the activation (HDL uptake increase) was -6.65% (inactive).
`CCN(CC)C(=O)C1CC(=O)N(c2ccc(OC)cc2)C1c1ccc(OC)cc1` (stereo not given): the activation (HDL uptake increase) was -8.42% (inactive).
Still for that read-out and setting: for `Nc1nc(SCC(=O)OCc2ccccc2)[nH]c(=O)c1NC(=O)c1ccco1` the value was 4.16% (inactive); for `O=C(CNC(=O)c1ccc(Cl)cc1Cl)OCC(=O)N1CCCC1`, -11.8% (inactive); for `O=C(COC(=O)/C=C/c1cccc(Cl)c1)NCCc1ccc(Cl)cc1Cl`, -1.95% (inactive).
As for `CCOC(=O)[C@H]1[C@H]2COc3ccccc3[C@@H]2N2C(=O)CN(Cc3ccccc3)C(=O)[C@@]12C`, the activation (HDL uptake increase) was -9.27% (inactive).
In the case of `O=C1NCCCC1C(=O)NCCNC(=O)C(F)(F)F` (stereo not given), the activation (HDL uptake increase) is -6.55% (inactive).
For the compound `Cc1cc(S(=O)(=O)NCCc2ccccc2)c(C)s1`, the activation (HDL uptake increase) is -1.19% (inactive).
`Cc1ccc(S(=O)(=O)N2CCOCC2)cc1C(=O)NCc1ccccc1CN1CCCC1`: the activation (HDL uptake increase) was -7.63% (inactive).
Take `Cn1c(SCC(=O)N2CCCCCC2)nc2c(c1=O)SCC2`: the activation (HDL uptake increase) is -10.7% (inactive).
For `O=C(CN1CCN(S(=O)(=O)c2ccc(Cl)s2)CC1)NCc1ccc(Cl)cc1`, the activation (HDL uptake increase) is -4.32% (inactive).
With `CCc1ccccc1NC(=O)CN1CCC(NC(=O)COC)CC1`, the activation (HDL uptake increase) is -1.48% (inactive).
Regarding `O=C(NCc1cccc(Cl)c1)c1ccc(CS(=O)Cc2ccccc2Cl)o1` (stereo not given), the activation (HDL uptake increase) is 0.636% (inactive).
Take `COc1ccc(N2C(=O)CCC(C(=O)N3CCOCC3)C2c2ccc(F)cc2)cc1` (stereo not given): the activation (HDL uptake increase) was 5.04% (inactive).
On to `COCCN(CC(=O)Nc1cc(Cl)ccc1-n1cncn1)Cc1nc2ccccc2c(=O)[nH]1`, for which the activation (HDL uptake increase) was -4.92% (inactive).
On the same count and under the same terms, for `Cc1c(C(=O)N(C)C(C)c2ccncn2)oc2c(F)cccc12` (stereo not given) the value was -9.31% (inactive).
Take `O=C(CCSc1nnc(-c2ccco2)o1)Nc1ccc(Cl)cc1`: the activation (HDL uptake increase) was -2.84% (inactive).
In the case of `COc1ccc(NC(=O)C(NC(=O)Cc2cccs2)c2ccc(C)cc2)cc1` (stereo not given), the activation (HDL uptake increase) is 2.03% (inactive).
On the same count and under the same terms, as for `CCOC(CNC(=O)C1CCN(S(=O)(=O)c2ccc3nc4c(c(C(=O)O)c3c2)CCCCC4)CC1)OCC`, the figure is 5.08% (inactive); as for `CC(=O)Oc1ccc2oc(=O)c3c(c2c1)CCCN3C(=O)CN1CCN(c2ncccn2)CC1`, -12.6% (inactive); as for `CCOC(=O)c1csc(NC(=O)CN2CCN(C)CC2)n1`, 10.4% (inactive).
Regarding `CCN(CC)CCCNC(CC(=O)Nc1cccc([N+](=O)[O-])c1)C(=O)O` (stereo not given), the activation (HDL uptake increase) is -2.51% (inactive).
Consider `Cc1ccc(N(CC(=O)NC2CCC(C)CC2)S(=O)(=O)c2cccnc2)cc1` (stereo not given), for which the activation (HDL uptake increase) is 6.17% (inactive).
As for `Cc1ccc(S(=O)(=O)c2cc(OC(=O)c3ccco3)ccc2OC(=O)c2ccco2)cc1`, the activation (HDL uptake increase) is -6.59% (inactive).
Take `O=C(CC(c1ccccc1)c1ccco1)Nc1nccs1` (stereo not given): the activation (HDL uptake increase) was 4.67% (inactive).
Still for that read-out and setting: for `COc1ccccc1-c1nc(SCC(=O)Nc2ccccc2F)n[nH]1` the value was -24.3% (inactive); for `Cc1cccc(CCNS(=O)(=O)c2ccc3c(c2)NC(=O)CO3)c1`, 11.6% (inactive).
The same measure, in the same setting: for `COC(=O)C1(C)NC(c2ccccc2OC)C2C(=O)N(c3ccccc3)C(=O)C21` (stereo not given) the value was 7.27% (inactive); for `CC(C)NC(=O)c1ccc(CS(=O)(=O)c2ccc(Br)cc2)o1`, -7.98% (inactive).
On the same count and under the same terms, for `O=C1C(=O)N(CNc2cccnc2)c2ccccc21` the value was -7.96% (inactive); for `CCS(=O)(=O)c1nc(S(=O)(=O)c2ccc(C)cc2)c(N2CCC(C)CC2)s1`, -8.15% (inactive).
As to `COc1ccc(-n2nc(C(=O)NCC(=O)O)c3ccccc3c2=O)cc1`, the activation (HDL uptake increase) was 11.7% (inactive).
On to `O=C(CNC(=O)c1cncc(Br)c1)Nc1ccc(F)c(F)c1F`, for which the activation (HDL uptake increase) is -11% (inactive).
On to `COc1ccc(NC(=O)COC(=O)c2cc(SC)ccc2Cl)c(OC)c1`, for which the activation (HDL uptake increase) is -14.1% (inactive).

The same experiment, now with this note: ldlA[mSR-BI] CHO cells, DiI-HDL uptake fluorescence, 3 h.
In the case of `O=C(C[C@H]1C[C@H](C(=O)N2CCCCC2)[C@@]2(CCc3ccccc3)c3[nH]c4ccc(Cl)cc4c3CCN2C1=O)NCc1cccc(C(F)(F)F)c1`, the AC40 was > 35 µM (inactive).
The same measure, in the same setting: as for `NC(=O)c1ncn([C@@H]2O[C@H](CN=C3NS(=O)(=O)c4ccccc43)[C@@H](O)[C@H]2O)n1`, the figure is > 35 µM (inactive); as for `CCOC(=O)c1ccc(NC(=O)c2nc[nH]c2C(=O)NCCCCNC(=O)c2[nH]cnc2C(=O)Nc2ccc(C(=O)OCC)cc2)cc1`, 29.8 µM; as for `FC(F)(F)c1ccc(C2[C@H]3CN(Cc4cccnc4)[C@H](c4ccccc4)C34CC2(c2cccnc2)C4)cc1` (stereo not given in full), > 35 µM (inactive).

(Values after PubChem BioAssay AID602191 (Broad Institute, 2012).)
